Values quoted from earlier work in patent US20260174683A1, “CHEWABLE COMPOSITION COMPRISING A GUMMY MATRIX AND COMPRISING MELATONIN, SODIUM ALGINATE, AND CALCIUM LACTATE” (S.I.I.T. S.R.L.-SERVIZIO INTERNAZIONALE IMBALLAGGI …, priority 2022, published 2026).

SMILES	pH of 5% solution in water
CC(O)C(=O)[O-].CC(O)C(=O)[O-].[Mg+2] (centres unmarked) [Magnesium lactate, magnesium lactate]	6.5-8.5
CC(O)C(=O)[O-].CC(O)C(=O)[O-].[Ca+2] (centres unmarked) [calcium lactate]	6-8
